We go through two molecules from paper PMC7118210 (Frontiers in Pharmacology, 2020).

Series [1] can be described thus: Multiple-dose pharmacokinetics in dogs. The series is classed as in vivo, Beagle dogs. The protocol:
(§1) The optimal volume and activity in unit volume of enzyme solution [0.2 M acetic acid/water solution: 0.2 M ammonium acetate/water solution, 15:35 (v/v)] were determined through a pretest of the enzyme (rat plasma, 10 μl, 10 U μl^-1; dog plasma, 10 μl, 10 U μl^-1; human plasma, 20 μl, 20 U μl^-1; human urine, 10 μl, 10 U μl^-1). After enzyme incubation, 10 μl of IS solution was added to the plasma and urine samples (2 μg ml^-1 quercetin 3-β-D-glucoside for rat and dog plasma; 583 ng ml^-1 naringin-D4 and 160 ng ml^-1 naringenin-D4 for human plasma; and 9,710 ng ml^-1 naringin-D4 and 6,000 ng ml^-1 naringenin-D4 for human urine). To each fecal sample, 9-fold methanol-normal saline (2:1, v/v) was added, mixed (18,000 rpm, 15 min) by vortexing and centrifuged (10 min, 9,000 rpm, 4°C). Next, 10 μl IS solution (971 ng ml^-1 naringin-D4 and 600 ng ml^-1 naringenin-D4) was added to the supernatants of feces (200 μl) without enzyme incubation. […] The solid material was dissolved with acetonitrile-water (1:1, v/v) and injected into the ultra high-performance liquid chromatography coupled with triple quadrupole mass spectrometry (UHPLC/MS/MS) system as described below. The analysis of nonclinical and clinical samples was performed with a UHPLC/MS/MS system that consisted of a Shimadzu Nexera X2 ultra high-performance liquid chromatography (UHPLC) (Shimadzu Corp., Kyoto, Japan) coupled with an AB Sciex API4000 triple-quadrupole mass spectrometry (MS/MS) system (AB Sciex, Foster City, CA, USA) equipped with an electrospray ionization source and controlled by Analyst (v. 1.6.2) software. […] The injection volume was 10 μl with the flow rate of 0.3 ml min^-1 for plasma, and 0.4 ml min^-1 for urine and feces. The compounds were detected by multiple reaction monitoring in the negative ion electrospray mode. The electrospray source conditions were as follows: ion source gas1 30 psi, ion source gas2 60 psi, curtain gas 20 psi, collisionally activated dissociation (CAD) gas 8 psi, temperature 500°C, and ion spray voltage −4,500 V. Zero air was used for ion source gas1 and ion source gas2 and nitrogen for curtain gas and CAD gas. […] All pharmacokinetic and excretion parameters were expressed as mean ± standard deviation (SD). All mean and SD values were reported to three significant figures. The pharmacokinetic parameters were calculated using the Phoenix WinNonlin software (Version 6.4, Pharsight Corp., Cary, NC, USA) and compared using the Student's t-test (p < 0.05) in SPSS 18.0 (SPSS Inc., Chicago, IL, USA). […] For the multiple-dose studies, pharmacokinetic parameters included the mean plasma level at steady state, Tmax, t1/2, the percent fluctuation, and the accumulation index (Table 3). […] In addition, we compared the pharmacokinetic parameters obtained from males and females (Tables 4–6).

Series [2] is described as follows: Multiple-dose pharmacokinetics in healthy humans. It is filed as in vivo, human. The method, then:
as §1, with “Naringin and placebo tablets were identical in appearance and participants, care providers, and those assessing outcomes were blinded to the study drug assignment. Using the Statistical Analysis System (SAS) software (Version 9.4, SAS Institute Inc., Cary, NC, USA), subject randomization and blinding/masking were performed by statisticians from the Department of Health Statistics at the Second Military Medical University. […] Human urine samples were collected at −12~0, 0~4, 4~8, 8~12, 12~24, 24~36, 36~48, 48~60, and 60~72 h for the single-dose groups and −12~0 (Day1), −12~0 (Day7), 0~4, 4~8, 8~12, 12~24, 24~36, 36~48, 48~60, and 60~72 h (Day7) for the multiple-dose group with records of volume. Human feces were collected in storage boxes, weighed, and recorded from 12 h before administration to 72 h postadministration. […] The optimal” for “The optimal”

The mark [3] stands for this setting: naringin 12.4 mg kg^-1 multiple dose, dog, female.
Where [4] appears, read: naringin 12.4 mg kg^-1 multiple dose, dog, male.
The mark [5] stands for this setting: naringin 12.4 mg kg^-1 p.o. three times a day, multiple dose, dog.
The mark [6] stands for this setting: naringin 160 mg multiple dose, human, female.
Setting [7] is: naringin 160 mg multiple dose, human, male.
[8] abbreviates: naringin 160 mg p.o. three times a day, multiple dose, human.

Consider `O=C1C[C@@H](c2ccc(O)cc2)Oc2cc(O)cc(O)c21` [naringenin, Naringenin], for which the “accumulation in multiple-dose study” value in series [1] (dog, in vivo) is given as “no significant accumulation”; in series [2] (in vivo), “no significant accumulation”. In addition, the CavSS turned out to be 50.7 ± 16.1 ng/mL in series [1] (setting [3]); 49 ± 10.4 ng/mL in series [1] (setting [4]); 49.8 ± 12.2 ng/mL in series [1] (setting [5]); 22.6 ± 8.42 ng/mL in series [2] (setting [6]); 47.2 ± 47 ng/mL in series [2] (setting [7]); 39 ± 38.7 ng/mL in series [2] (setting [8]). In addition, in series [2] (setting [8]), the Tmax is given as 5.83 ± 1.17 h.

Take `C[C@@H]1O[C@@H](O[C@H]2[C@H](Oc3cc(O)c4c(c3)O[C@H](c3ccc(O)cc3)CC4=O)O[C@H](CO)[C@@H](O)[C@@H]2O)[C@H](O)[C@H](O)[C@H]1O` [naringin, Naringin]: the “accumulation in multiple-dose study” value in series [1] (dogs) and in series [2] (humans) was “no significant accumulation” throughout. Moreover, the CavSS is 22.1 ± 3.41 ng/mL in series [1] (setting [3]); 15.1 ± 2.53 ng/mL in series [1] (setting [4]); 18.6 ± 4.68 ng/mL in series [1] (setting [5]); 1.74 ± 0.377 ng/mL in series [2] (setting [6]); 1.75 ± 0.403 ng/mL in series [2] (setting [7]); 1.75 ± 0.365 ng/mL in series [2] (setting [8]). The Fluctuation in series [1] (setting [3]) was determined as 370 ± 119%; in series [1] (setting [4]) it was 242 ± 8.10%; in series [1] (naringin 12.4 mg kg^-1 p.o. three times a day, multiple dose, dog, (CmaxSS−CminSS)/CavSS×100%) it was 306 ± 103%; in series [2] (setting [6]), 149 ± 37.5%; in series [2] (setting [7]) it was 210 ± 79.6%; in series [2] (naringin 160 mg p.o. three times a day, multiple dose, human, (CmaxSS−CminSS)/CavSS×100%) it was 187 ± 70.7%.
